Key:
CLK2 = target: T1, CLK2 (Homo sapiens, UniProt P49760); assay: KINOMEscan at 1 μM, CLK2; format: binding; conditions: 1000 nM, read-out: Percent Control
T1 construct: purchased Eurofins DiscoverX KINOMEscan
From the text: (§1) Supplement cells-12-00287-s001.zip/File S2. KinomeScan data for the CAMKK2 probe and negative control.xlsx, sheet "SGC-CAMKK2-1N" | column: Percent Control

WNK1 [1] = target: T2, WNK1 (Homo sapiens, UniProt Q9H4A3); assay: KINOMEscan at 1 μM, WNK1; format: binding; conditions: 1000 nM, read-out: Percent Control
T2 construct: purchased Eurofins DiscoverX KINOMEscan
T2 sequence (Q9H4A3 whole entry): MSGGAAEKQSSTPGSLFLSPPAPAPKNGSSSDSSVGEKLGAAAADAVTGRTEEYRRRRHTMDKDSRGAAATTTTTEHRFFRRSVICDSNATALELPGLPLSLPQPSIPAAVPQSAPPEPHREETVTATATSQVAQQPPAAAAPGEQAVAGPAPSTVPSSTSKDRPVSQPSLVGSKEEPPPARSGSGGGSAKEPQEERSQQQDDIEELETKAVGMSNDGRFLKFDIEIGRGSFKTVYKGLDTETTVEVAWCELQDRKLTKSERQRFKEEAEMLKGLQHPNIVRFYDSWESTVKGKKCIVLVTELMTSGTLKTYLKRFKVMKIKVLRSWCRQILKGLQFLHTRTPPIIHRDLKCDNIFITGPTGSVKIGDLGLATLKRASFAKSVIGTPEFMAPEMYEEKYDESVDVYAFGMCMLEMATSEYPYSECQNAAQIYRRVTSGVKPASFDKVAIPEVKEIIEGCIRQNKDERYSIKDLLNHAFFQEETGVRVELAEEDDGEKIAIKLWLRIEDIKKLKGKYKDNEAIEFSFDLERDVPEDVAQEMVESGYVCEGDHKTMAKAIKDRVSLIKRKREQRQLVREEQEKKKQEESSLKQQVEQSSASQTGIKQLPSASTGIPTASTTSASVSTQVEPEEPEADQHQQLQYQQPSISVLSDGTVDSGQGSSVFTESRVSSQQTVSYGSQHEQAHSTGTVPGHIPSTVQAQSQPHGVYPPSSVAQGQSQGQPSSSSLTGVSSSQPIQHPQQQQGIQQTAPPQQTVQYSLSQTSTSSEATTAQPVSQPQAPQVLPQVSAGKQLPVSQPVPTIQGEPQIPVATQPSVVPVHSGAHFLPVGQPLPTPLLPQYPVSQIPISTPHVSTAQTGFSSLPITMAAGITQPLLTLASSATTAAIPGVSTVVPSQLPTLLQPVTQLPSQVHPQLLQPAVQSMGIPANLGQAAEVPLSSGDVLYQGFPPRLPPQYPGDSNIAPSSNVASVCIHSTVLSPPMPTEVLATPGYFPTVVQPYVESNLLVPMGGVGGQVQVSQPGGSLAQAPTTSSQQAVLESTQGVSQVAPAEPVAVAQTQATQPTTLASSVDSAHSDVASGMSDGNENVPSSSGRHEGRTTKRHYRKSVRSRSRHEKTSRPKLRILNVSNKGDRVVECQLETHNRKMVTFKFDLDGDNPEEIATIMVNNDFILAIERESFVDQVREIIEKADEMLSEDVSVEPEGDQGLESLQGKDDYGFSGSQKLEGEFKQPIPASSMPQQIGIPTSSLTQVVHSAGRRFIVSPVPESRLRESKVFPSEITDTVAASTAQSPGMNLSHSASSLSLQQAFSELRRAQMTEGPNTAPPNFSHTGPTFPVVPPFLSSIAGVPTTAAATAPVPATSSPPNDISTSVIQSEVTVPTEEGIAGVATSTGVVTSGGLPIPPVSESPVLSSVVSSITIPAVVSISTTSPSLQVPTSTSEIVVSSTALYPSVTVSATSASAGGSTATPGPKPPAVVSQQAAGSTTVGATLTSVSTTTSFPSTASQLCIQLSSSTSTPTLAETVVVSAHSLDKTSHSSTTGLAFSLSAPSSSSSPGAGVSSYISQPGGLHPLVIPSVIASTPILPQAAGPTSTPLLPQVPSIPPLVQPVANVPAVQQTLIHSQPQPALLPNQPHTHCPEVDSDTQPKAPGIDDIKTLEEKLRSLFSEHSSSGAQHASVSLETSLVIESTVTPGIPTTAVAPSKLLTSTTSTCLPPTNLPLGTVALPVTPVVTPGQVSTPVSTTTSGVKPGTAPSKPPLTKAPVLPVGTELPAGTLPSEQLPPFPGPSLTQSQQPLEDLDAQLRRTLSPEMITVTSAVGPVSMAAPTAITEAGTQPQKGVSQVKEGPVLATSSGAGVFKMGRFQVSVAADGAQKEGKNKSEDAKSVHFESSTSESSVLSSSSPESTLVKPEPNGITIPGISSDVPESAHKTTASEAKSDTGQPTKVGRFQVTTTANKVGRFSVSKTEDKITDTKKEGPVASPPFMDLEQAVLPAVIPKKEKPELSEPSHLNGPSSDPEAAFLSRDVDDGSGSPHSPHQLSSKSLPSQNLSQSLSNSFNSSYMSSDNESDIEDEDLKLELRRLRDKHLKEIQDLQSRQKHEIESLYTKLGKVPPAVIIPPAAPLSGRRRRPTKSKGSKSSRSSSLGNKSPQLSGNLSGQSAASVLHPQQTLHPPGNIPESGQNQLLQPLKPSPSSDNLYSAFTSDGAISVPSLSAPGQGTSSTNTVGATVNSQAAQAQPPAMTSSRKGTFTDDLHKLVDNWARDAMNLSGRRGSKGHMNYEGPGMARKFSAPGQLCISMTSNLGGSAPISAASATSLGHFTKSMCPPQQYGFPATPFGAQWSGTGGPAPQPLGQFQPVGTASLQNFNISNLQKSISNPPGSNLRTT
From the text: as §1

CDKL5 = target: T3, CDKL5 (Homo sapiens, UniProt O76039); assay: KINOMEscan at 1 μM, CDKL5; format: binding; conditions: 1000 nM, read-out: Percent Control
T3 construct: purchased Eurofins DiscoverX KINOMEscan
From the text: as §1

JNK3 = target: T4, JNK3 (Homo sapiens, UniProt P53779); assay: KINOMEscan binding assay at 1 μM, JNK3; conditions: Compound Concentration 1000 nM; read-out: Percent Control
T4 construct: purchased Eurofins DiscoverX KINOMEscan
T4 sequence (P53779 whole entry): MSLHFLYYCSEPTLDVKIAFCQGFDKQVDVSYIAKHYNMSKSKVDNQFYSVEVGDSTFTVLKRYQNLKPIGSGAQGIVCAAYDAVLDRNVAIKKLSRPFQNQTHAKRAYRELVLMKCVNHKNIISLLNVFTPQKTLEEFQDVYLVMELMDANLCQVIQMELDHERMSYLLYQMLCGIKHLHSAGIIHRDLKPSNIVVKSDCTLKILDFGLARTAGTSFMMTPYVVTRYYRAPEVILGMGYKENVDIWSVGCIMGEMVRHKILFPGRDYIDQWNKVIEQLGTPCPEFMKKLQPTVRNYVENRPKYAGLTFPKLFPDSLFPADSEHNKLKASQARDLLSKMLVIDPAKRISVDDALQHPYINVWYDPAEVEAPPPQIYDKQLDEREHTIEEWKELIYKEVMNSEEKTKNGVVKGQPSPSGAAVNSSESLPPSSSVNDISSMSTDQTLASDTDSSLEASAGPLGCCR
From the text: as §1

ULK3 = target: T5, ULK3 (Homo sapiens, UniProt Q6PHR2); assay: KINOMEscan at 1 μM, ULK3; format: binding; conditions: 1000 nM, read-out: Percent Control
T5 construct: purchased Eurofins DiscoverX KINOMEscan
From the text: as §1

VEGFR2 = target: T6, VEGFR2 (Homo sapiens, UniProt P35968); assay: KINOMEscan at 1 μM, VEGFR2; format: binding; conditions: 1000 nM, read-out: Percent Control
T6 construct: purchased Eurofins DiscoverX KINOMEscan
From the text: as §1

MERTK = target: T7, MERTK (Homo sapiens, UniProt Q12866); assay: KINOMEscan at 1 μM, MERTK; format: binding; conditions: 1000 nM, read-out: Percent Control
T7 construct: purchased Eurofins DiscoverX KINOMEscan
From the text: as §1

MYLK = target: T8, MYLK (Homo sapiens, UniProt Q15746); assay: KINOMEscan at 1 μM, MYLK; format: binding; conditions: 1000 nM, read-out: Percent Control
T8 construct: purchased Eurofins DiscoverX KINOMEscan
From the text: as §1

GRK2 = target: T9, GRK2 (Homo sapiens, UniProt P25098); assay: KINOMEscan at 1 μM, GRK2; format: binding; conditions: 1000 nM, read-out: Percent Control
T9 construct: purchased Eurofins DiscoverX KINOMEscan
From the text: as §1

[2] = target: T10, RPS6KA4(Kin.Dom.1-N-terminal) (Homo sapiens, UniProt O75676); assay: KINOMEscan binding assay at 1 μM, RPS6KA4(Kin.Dom.1-N-terminal); conditions: Compound Concentration 1000 nM; read-out: Percent Control
T10 construct: RPS6KA4(Kin.Dom.1-N-terminal); purchased Eurofins DiscoverX KINOMEscan
From the text: as §1

TRKC = target: T11, TRKC (Homo sapiens, UniProt Q16288); assay: KINOMEscan at 1 μM, TRKC; format: binding; conditions: 1000 nM, read-out: Percent Control
T11 construct: purchased Eurofins DiscoverX KINOMEscan
From the text: as §1

[3] = target: T12, ABL1(Y253F)-phosphorylated (Homo sapiens, UniProt P00519, Y253F); assay: KINOMEscan at 1 μM, ABL1(Y253F)-phosphorylated; format: binding; conditions: 1000 nM, read-out: Percent Control
T12 construct: purchased Eurofins DiscoverX KINOMEscan
From the text: as §1

EPHA8 [4] = target: T13, EPHA8 (Homo sapiens, UniProt P29322); assay: KINOMEscan binding assay at 1 μM, EPHA8; conditions: Compound Concentration 1000 nM; read-out: Percent Control
T13 construct: purchased Eurofins DiscoverX KINOMEscan
T13 sequence (P29322 28-1005): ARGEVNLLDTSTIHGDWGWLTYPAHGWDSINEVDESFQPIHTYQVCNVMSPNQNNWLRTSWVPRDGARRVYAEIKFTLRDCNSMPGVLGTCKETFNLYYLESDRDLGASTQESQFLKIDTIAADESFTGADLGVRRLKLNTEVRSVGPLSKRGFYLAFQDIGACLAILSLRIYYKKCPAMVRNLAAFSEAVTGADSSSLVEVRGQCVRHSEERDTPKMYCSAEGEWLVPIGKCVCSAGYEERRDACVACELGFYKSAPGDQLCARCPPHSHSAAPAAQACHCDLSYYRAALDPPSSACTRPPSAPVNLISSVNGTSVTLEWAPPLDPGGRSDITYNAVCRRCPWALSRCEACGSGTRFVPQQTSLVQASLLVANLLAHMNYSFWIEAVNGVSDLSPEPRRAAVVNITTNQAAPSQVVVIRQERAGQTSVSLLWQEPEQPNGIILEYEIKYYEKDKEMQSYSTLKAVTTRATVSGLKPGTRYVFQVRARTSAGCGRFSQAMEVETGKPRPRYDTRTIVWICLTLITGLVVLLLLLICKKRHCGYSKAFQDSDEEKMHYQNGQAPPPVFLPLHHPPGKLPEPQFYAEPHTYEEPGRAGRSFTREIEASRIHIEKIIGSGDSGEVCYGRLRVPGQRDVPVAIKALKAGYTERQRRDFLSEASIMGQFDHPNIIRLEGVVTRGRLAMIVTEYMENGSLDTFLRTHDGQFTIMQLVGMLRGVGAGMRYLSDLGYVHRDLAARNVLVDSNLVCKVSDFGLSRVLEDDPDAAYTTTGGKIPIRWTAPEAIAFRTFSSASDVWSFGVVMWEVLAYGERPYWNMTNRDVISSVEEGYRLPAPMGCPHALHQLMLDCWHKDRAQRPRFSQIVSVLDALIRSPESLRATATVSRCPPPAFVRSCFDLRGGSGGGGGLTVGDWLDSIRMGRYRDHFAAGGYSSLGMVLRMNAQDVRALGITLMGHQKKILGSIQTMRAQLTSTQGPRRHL
From the text: as §1

ACVR2A = target: T14, ACVR2A (Homo sapiens, UniProt P27037); assay: KINOMEscan at 1 μM, ACVR2A; format: binding; conditions: 1000 nM, read-out: Percent Control
T14 construct: purchased Eurofins DiscoverX KINOMEscan
From the text: as §1

ABL2 = target: T15, ABL2 (Homo sapiens, UniProt P42684); assay: KINOMEscan at 1 μM, ABL2; format: binding; conditions: 1000 nM, read-out: Percent Control
T15 construct: purchased Eurofins DiscoverX KINOMEscan
From the text: as §1

DAPK1 = target: T16, DAPK1 (Homo sapiens, UniProt P53355); assay: KINOMEscan at 1 μM, DAPK1; format: binding; conditions: 1000 nM, read-out: Percent Control
T16 construct: purchased Eurofins DiscoverX KINOMEscan
From the text: as §1

ITK = target: T17, ITK (Homo sapiens, UniProt Q08881); assay: KINOMEscan binding assay at 1 μM, ITK; conditions: Compound Concentration 1000 nM; read-out: Percent Control
T17 construct: purchased Eurofins DiscoverX KINOMEscan
From the text: as §1

MEK4 = target: T18, MEK4 (Homo sapiens, UniProt P45985); assay: KINOMEscan 1 μM, MEK4; format: binding; conditions: 1000 nM; Entrez MAP2K4; read-out: Percent Control
T18 construct: purchased Eurofins DiscoverX KINOMEscan
From the text: (§2) Supplement cells-12-00287-s001.zip/File S2. KinomeScan data for the CAMKK2 probe and negative control.xlsx, sheet "SGC-CAMKK2-1" | column: Percent Control

PIK3CA(E545K) = target: T19, PIK3CA(E545K) (Homo sapiens, UniProt P42336, E545K); assay: KINOMEscan 1 μM, PIK3CA(E545K); format: binding; conditions: 1000 nM; Entrez PIK3CA; read-out: Percent Control
T19 construct: purchased Eurofins DiscoverX KINOMEscan
From the text: as §2

CSNK2A1 = target: T20, CSNK2A1 (Homo sapiens, UniProt P68400); assay: KINOMEscan 1 μM, CSNK2A1; format: binding; conditions: 1000 nM; Entrez CSNK2A1; read-out: Percent Control
T20 construct: purchased Eurofins DiscoverX KINOMEscan
From the text: as §2

SRPK3 = target: T21, SRPK3 (Homo sapiens, UniProt Q9UPE1); assay: DiscoverX KINOMEscan binding assay at 1 μM, SRPK3; conditions: Compound Concentration 1000 nM, read-out: Percent Control
T21 construct: purchased Eurofins DiscoverX KINOMEscan
T21 sequence (Q9UPE1 whole entry): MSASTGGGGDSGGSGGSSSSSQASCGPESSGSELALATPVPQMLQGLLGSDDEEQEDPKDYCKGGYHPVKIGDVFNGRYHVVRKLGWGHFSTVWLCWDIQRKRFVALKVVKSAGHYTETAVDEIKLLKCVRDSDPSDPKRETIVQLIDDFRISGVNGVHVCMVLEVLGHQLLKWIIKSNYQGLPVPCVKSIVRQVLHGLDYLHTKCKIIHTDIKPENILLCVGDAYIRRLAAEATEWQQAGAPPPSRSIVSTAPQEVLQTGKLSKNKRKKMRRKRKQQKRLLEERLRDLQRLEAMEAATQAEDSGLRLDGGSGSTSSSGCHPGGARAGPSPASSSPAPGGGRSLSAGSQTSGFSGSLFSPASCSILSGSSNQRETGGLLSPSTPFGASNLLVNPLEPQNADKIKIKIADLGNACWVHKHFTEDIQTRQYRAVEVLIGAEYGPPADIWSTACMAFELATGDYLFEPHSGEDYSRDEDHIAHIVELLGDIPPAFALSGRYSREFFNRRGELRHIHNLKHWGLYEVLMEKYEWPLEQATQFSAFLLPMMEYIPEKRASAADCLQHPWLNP
From the text: as §2

DYRK2 = target: T22, DYRK2 (Homo sapiens, UniProt Q92630); assay: KINOMEscan 1 μM, DYRK2; format: binding; conditions: 1000 nM; Entrez DYRK2; read-out: Percent Control
T22 construct: purchased Eurofins DiscoverX KINOMEscan
From the text: as §2

FLT3(ITD) = assay: KINOMEscan 1 μM, FLT3(ITD); format: binding, human; conditions: 1000 nM; Entrez FLT3
From the text: as §2

PRKCE = target: T23, PRKCE (Homo sapiens, UniProt Q02156); assay: KINOMEscan 1 μM, PRKCE; format: binding; conditions: 1000 nM; Entrez PRKCE; read-out: Percent Control
T23 construct: purchased Eurofins DiscoverX KINOMEscan
T23 sequence (Q02156 whole entry): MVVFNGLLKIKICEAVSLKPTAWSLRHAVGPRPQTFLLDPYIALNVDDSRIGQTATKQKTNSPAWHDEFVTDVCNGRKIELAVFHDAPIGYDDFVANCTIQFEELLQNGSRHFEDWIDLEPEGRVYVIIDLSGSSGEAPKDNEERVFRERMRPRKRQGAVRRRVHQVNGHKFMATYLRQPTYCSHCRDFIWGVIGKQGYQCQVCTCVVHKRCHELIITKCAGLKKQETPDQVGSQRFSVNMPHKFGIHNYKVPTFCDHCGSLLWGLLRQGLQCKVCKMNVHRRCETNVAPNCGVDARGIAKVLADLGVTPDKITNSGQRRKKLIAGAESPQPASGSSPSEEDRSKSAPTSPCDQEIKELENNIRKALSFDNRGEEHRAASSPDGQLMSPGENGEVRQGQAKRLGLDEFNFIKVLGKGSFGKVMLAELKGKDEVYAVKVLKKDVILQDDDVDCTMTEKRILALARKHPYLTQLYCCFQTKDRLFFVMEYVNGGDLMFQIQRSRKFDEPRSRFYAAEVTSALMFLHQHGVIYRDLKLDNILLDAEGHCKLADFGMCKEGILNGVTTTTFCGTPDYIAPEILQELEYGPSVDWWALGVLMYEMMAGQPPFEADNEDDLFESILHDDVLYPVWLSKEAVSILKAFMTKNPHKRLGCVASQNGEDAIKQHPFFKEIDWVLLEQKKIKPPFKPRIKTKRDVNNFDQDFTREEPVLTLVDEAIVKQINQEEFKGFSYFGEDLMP
From the text: as §2

RET(V804M) = target: T24, RET(V804M) (Homo sapiens, UniProt P07949, V804M); assay: DiscoverX KINOMEscan binding assay at 1 μM, RET(V804M); conditions: Compound Concentration 1000 nM, read-out: Percent Control
T24 construct: purchased Eurofins DiscoverX KINOMEscan
From the text: as §2

PRKCH = target: T25, PRKCH (Homo sapiens, UniProt P24723); assay: DiscoverX KINOMEscan binding assay at 1 μM, PRKCH; conditions: Compound Concentration 1000 nM, read-out: Percent Control
T25 construct: purchased Eurofins DiscoverX KINOMEscan
From the text: as §2

ROCK2 = target: T26, ROCK2 (Homo sapiens, UniProt O75116); assay: DiscoverX KINOMEscan binding assay at 1 μM, ROCK2; conditions: Compound Concentration 1000 nM, read-out: Percent Control
T26 construct: purchased Eurofins DiscoverX KINOMEscan
From the text: as §2

[5] = target: T27, ABL1(H396P)-phosphorylated (Homo sapiens, UniProt P00519, H396P); assay: KINOMEscan 1 μM, ABL1(H396P)-phosphorylated; format: binding; conditions: 1000 nM; Entrez ABL1; read-out: Percent Control
T27 construct: purchased Eurofins DiscoverX KINOMEscan
From the text: as §2

S6K1 = target: T28, S6K1 (Homo sapiens, UniProt P23443); assay: DiscoverX KINOMEscan binding assay at 1 μM, S6K1; conditions: S6K1 (RPS6KB1); Compound Concentration 1000 nM; read-out: Percent Control
T28 construct: purchased Eurofins DiscoverX KINOMEscan
From the text: as §2

EPHA8 [6] = target: T13, EPHA8; assay: KINOMEscan 1 μM, EPHA8; format: binding; conditions: 1000 nM; Entrez EPHA8; read-out: Percent Control
From the text: as §2

MAST1 = target: T29, MAST1 (Homo sapiens, UniProt Q9Y2H9); assay: KINOMEscan 1 μM, MAST1; format: binding; conditions: 1000 nM; Entrez MAST1; read-out: Percent Control
T29 construct: purchased Eurofins DiscoverX KINOMEscan
From the text: as §2

EPHB2 = target: T30, EPHB2 (Homo sapiens, UniProt P29323); assay: KINOMEscan 1 μM, EPHB2; format: binding; conditions: 1000 nM; Entrez EPHB2; read-out: Percent Control
T30 construct: purchased Eurofins DiscoverX KINOMEscan
From the text: as §2

WNK1 [7] = target: T2, WNK1; assay: DiscoverX KINOMEscan binding assay at 1 μM, WNK1; conditions: Compound Concentration 1000 nM, read-out: Percent Control
From the text: as §2

DLK = target: T31, DLK (Homo sapiens, UniProt Q12852); assay: KINOMEscan 1 μM, DLK; format: binding; conditions: 1000 nM; Entrez MAP3K12; read-out: Percent Control
T31 construct: purchased Eurofins DiscoverX KINOMEscan
From the text: as §2

O=C(O)c1ccc(-c2coc3ncc(-c4ccccc4)cc23)cc1Cl [SGC-CAMKK2-1N (UNC-YL-83)]
remaining binding at 1 µM (CLK2): 62% | remaining binding at 1 µM (WNK1 [1]): 66% | remaining binding at 1 µM (CDKL5): 100% | remaining binding at 1 µM (JNK3): 100% | remaining binding at 1 µM (ULK3): 82% | remaining binding at 1 µM (VEGFR2): 90% | remaining binding at 1 µM (MERTK): 93% | remaining binding at 1 µM (MYLK): 69% | remaining binding at 1 µM (GRK2): 55% | remaining binding at 1 µM [2]: 100% | remaining binding at 1 µM (TRKC): 78% | remaining binding at 1 µM [3]: 69% | remaining binding at 1 µM (EPHA8 [4]): 100% | remaining binding at 1 µM (ACVR2A): 72% | remaining binding at 1 µM (ABL2): 100% | remaining binding at 1 µM (DAPK1): 100% | remaining binding at 1 µM (ITK): 100%

Cc1cccc(-c2cnc3occ(-c4ccc(C(=O)O)c(C5CCCC5)c4)c3c2)c1 [SGC-CAMKK2-1 (YL-36)]
remaining binding at 1 µM (MEK4): 100% | remaining binding at 1 µM (PIK3CA(E545K)): 94% | remaining binding at 1 µM (CSNK2A1): 94% | remaining binding at 1 µM (SRPK3): 100% | remaining binding at 1 µM (DYRK2): 69% | Percent Control (FLT3(ITD)): 100% | remaining binding at 1 µM (PRKCE): 90% | remaining binding at 1 µM (RET(V804M)): 100% | remaining binding at 1 µM (PRKCH): 100% | remaining binding at 1 µM (ROCK2): 100% | remaining binding at 1 µM [5]: 77% | remaining binding at 1 µM (S6K1): 100% | remaining binding at 1 µM (EPHA8 [6]): 95% | remaining binding at 1 µM (MAST1): 65% | remaining binding at 1 µM (EPHB2): 100% | remaining binding at 1 µM (WNK1 [7]): 100% | remaining binding at 1 µM (DLK): 100%
